Experimental data taken from patent US20070049593A1 (priority 2004, published 2007).
Where a name gives a salt, the structure may show the parent alone.

Target: T1, HCV polymerase (Hepatitis C virus genotype 1b, UniProt P26663)
T1 construct: a region encoding NS5B (J Virol 1991 March, 65(3), 1105-13, 544 amino acids after deletion of 47 amino acids on the C-terminal); 6xHis (C); made in house; host or cells: Escherichia coli
Assay: biochemical
Parameters: species or system HCV BK strain
Procedure, shortened: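 Recombinant HCV BK-strain NS5B (C-terminal 47 aa deleted, His6-tagged, E. coli), 0.5 μg/ml, run with 5 μg/ml in vitro-transcribed RNA template (polyU/3′X), ATP/GTP/CTP 50 μM, UTP 2 μM plus [3H]UTP, pH 7.5, 25° C, 90 min. TCA-precipitated RNA counted by scintillation; IC50 from activity with vs without compound.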

T1 sequence (P26663 2420-2963): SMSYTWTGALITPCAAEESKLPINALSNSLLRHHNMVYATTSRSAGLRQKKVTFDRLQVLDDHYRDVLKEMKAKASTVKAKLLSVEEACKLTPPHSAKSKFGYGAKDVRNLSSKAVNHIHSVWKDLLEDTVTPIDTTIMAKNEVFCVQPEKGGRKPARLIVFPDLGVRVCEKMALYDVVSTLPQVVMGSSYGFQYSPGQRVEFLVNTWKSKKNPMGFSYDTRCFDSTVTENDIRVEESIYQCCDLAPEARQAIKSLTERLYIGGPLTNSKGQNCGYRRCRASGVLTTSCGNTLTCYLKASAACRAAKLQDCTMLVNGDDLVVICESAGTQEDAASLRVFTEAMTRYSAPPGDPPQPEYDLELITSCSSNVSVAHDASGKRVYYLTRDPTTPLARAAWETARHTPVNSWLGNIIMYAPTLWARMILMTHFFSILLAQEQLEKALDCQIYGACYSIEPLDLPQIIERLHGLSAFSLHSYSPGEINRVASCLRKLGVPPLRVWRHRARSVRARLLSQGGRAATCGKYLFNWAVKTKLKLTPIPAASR

SMILES	IC50 [nM]
CONC(=O)[C@H](Cc1ccc(O)cc1)NC(=O)c1ccc2c(C3CCCCC3)c3n(c2c1)CCOc1cc(OC)ccc1-3 [Example 2-426, N—[(S)-2-(4-hydroxyphenyl)-1-(methoxycarbamoyl)ethyl]-12-cyclohexyl-3-methoxy-6,7-dihydro-5-oxa-7a-azadibenzo[a,e]azulene-9-carboxamide]	< 100
COc1ccc2c(c1)OCCn1c-2c(C2CCCCC2)c2ccc(C(=O)N[C@@H](Cc3ccc(O)cc3)C(=O)N(C)OC)cc21 [Example 2-427, N—[(S)-2-(4-hydroxyphenyl)-1-(N-methoxy-N-methylcarbamoyl)ethyl]-12-cyclohexyl-3-methoxy-6,7-dihydro-5-oxa-7a-azadibenzo[a,e]azulene-9-carboxamide]	< 100
COc1ccc2c(c1)OCCn1c-2c(C2CCCCC2)c2ccc(C(=O)N[C@@H](Cc3ccc(OCc4ccccc4)cc3)c3noc(=O)[nH]3)cc21 [Example 2-428, N—[(S)-2-(4-benzyloxyphenyl)-1-(5-oxo-4,5-dihydro-1,2,4-oxadiazol-3-yl)ethyl]-12-cyclohexyl-3-methoxy-6,7-dihydro-5-oxa-7a-azadibenzo[a,e]azulene-9-carboxamide]	< 100
COc1ccc2c(c1)OCCn1c-2c(C2CCCCC2)c2ccc(C(=O)N[C@@H](Cc3ccc(O)cc3)c3noc(=O)[nH]3)cc21 [Example 2-429, N—[(S)-2-(4-hydroxyphenyl)-1-(5-oxo-4,5-dihydro-1,2,4-oxadiazol-3-yl)ethyl]-12-cyclohexyl-3-methoxy-6,7-dihydro-5-oxa-7a-azadibenzo[a,e]azulene-9-carboxamide]	< 100
COc1ccc2c(c1)OCCn1c-2c(C2CCCCC2)c2ccc(C(=O)N[C@@H](Cc3ccc(OC(C)=O)cc3)c3noc(=O)[nH]3)cc21 [Example 2-430, 4-[(S)-2-[(12-cyclohexyl-3-methoxy-6,7-dihydro-5-oxa-7a-azadibenzo[a,e]azulene-9-carbonyl)amino]-2-(5-oxo-4,5-dihydro-1,2,4-oxadiazol-3-yl)ethyl]phenyl acetate]	< 100
COc1ccc2c(c1)OCCn1c-2c(C2CCCCC2)c2ccc(C(=O)N[C@@H](Cc3ccc(OC(C)=O)cc3)C3=NC(C)(C)C(=O)O3)cc21 [Example 2-431, 4-[(S)-2-[(12-cyclohexyl-3-methoxy-6,7-dihydro-5-oxa-7a-azadibenzo[a,e]azulene-9-carbonyl)amino]-2-(4,4-dimethyl-5-oxo-4,5-dihydrooxazol-2-yl)ethyl]phenyl acetate]	< 100
COc1ccc2c(c1)OCCn1c-2c(C2CCCCC2)c2ccc(C(=O)NC(C)(C)c3nc4ccccc4n3CCN3CCOCC3)cc21 [Example 2-432, N-(1-methyl-1-{1-[2-(morpholin-4-yl)ethyl]-1H-benzimidazol-2-yl}ethyl)-12-cyclohexyl-3-methoxy-6,7-dihydro-5-oxa-7a-azadibenzo[a,e]azulene-9-carboxamide]	< 100
COc1ccc2c(c1)OCCn1c-2c(C2CCCCC2)c2ccc(C(=O)NC(C)(C)c3nc4ccccc4n3CCO)cc21 [Example 2-433, N-{1-[1-(2-hydroxyethyl)-1H-benzimidazol-2-yl]-1-methylethyl}-12-cyclohexyl-3-methoxy-6,7-dihydro-5-oxa-7a-azadibenzo[a,e]azulene-9-carboxamide]	< 100
COCCn1c(C(C)(C)NC(=O)c2ccc3c(C4CCCCC4)c4n(c3c2)CCOc2cc(OC)ccc2-4)nc2ccccc21 [Example 2-434, N-{1-[1-(2-methoxyethyl)-1H-benzimidazol-2-yl]-1-methylethyl}-12-cyclohexyl-3-methoxy-6,7-dihydro-5-oxa-7a-azadibenzo[a,e]azulene-9-carboxamide]	< 100
CCOC(=O)[C@H](Cc1ccc(O)cc1)NC(=O)c1ccc2c(C3CCCCC3)c3n(c2c1)CCOc1cc(OC)ccc1-3 [Example 2-435, ethyl (S)-2-[(12-cyclohexyl-3-methoxy-6,7-dihydro-5-oxa-7a-azadibenzo[a,e]azulene-9-carbonyl)amino]-3-(4-hydroxyphenyl)propionate]	< 100
COc1ccc2c(c1)OCCn1c-2c(C2CCCCC2)c2ccc(C(=O)NC(Cc3ccc(O)cc3)C(C)C)cc21 (stereo not drawn) [Example 2-436, N-[1-(4-hydroxybenzyl)-2-methylpropyl]-12-cyclohexyl-3-methoxy-6,7-dihydro-5-oxa-7a-azadibenzo[a,e]azulene-9-carboxamide]	< 100
COCCOc1cc2[nH]c(C3(NC(=O)c4ccc5c(C6CCCCC6)c6n(c5c4)CCOc4cc(OC)ccc4-6)CCC3)nc2cc1C(=O)O [Example 2-437, 2-{1-[(12-cyclohexyl-3-methoxy-6,7-dihydro-5-oxa-7a-azadibenzo[a,e]azulene-9-carbonyl)amino]cyclobutyl}-6-(2-methoxyethoxy)-1H-benzimidazole-5-carboxylic acid]	< 100
COCCOc1cc2[nH]c(C3(NC(=O)c4ccc5c(C6CCCCC6)c6n(c5c4)CCOc4cc(OC)ccc4-6)CCC3)nc2cc1CO [Example 2-438, N-{1-[5-hydroxymethyl-6-(2-methoxyethoxy)-1H-benzimidazol-2-yl]cyclobutyl}-12-cyclohexyl-3-methoxy-6,7-dihydro-5-oxa-7a-azadibenzo[a,e]azulene-9-carboxamide]	< 100
COc1ccc2c(c1)OCCn1c-2c(C2CCCCC2)c2ccc(C(=O)NC3(c4nc5ccc(O)cc5[nH]4)CCC3)cc21 [Example 2-439, N-[1-(6-hydroxy-1H-benzimidazol-2-yl)cyclobutyl]-12-cyclohexyl-3-methoxy-6,7-dihydro-5-oxa-7a-azadibenzo[a,e]azulene-9-carboxamide]	< 100
COc1ccc2c(c1)OCCn1c-2c(C2CCCCC2)c2ccc(C(=O)N[C@@H](Cc3c[nH]c4ccc(OCC(=O)O)cc34)c3csc(C)n3)cc21 [Example 2-440, {3-[(S)-2-[(12-cyclohexyl-3-methoxy-6,7-dihydro-5-oxa-7a-azadibenzo[a,e]azulene-9-carbonyl)amino]-2-(2-methylthiazol-4-yl)ethyl]-1H-indol-5-yloxy}acetic acid]	< 100
COc1ccc2c(c1)OCCn1c-2c(C2CCCCC2)c2ccc(C(=O)N[C@H](C#N)Cc3ccc(O)cc3)cc21 [Example 2-441, N—[(S)-cyano-(4-hydroxybenzyl)-methyl]-12-cyclohexyl-3-methoxy-6,7-dihydro-5-oxa-7a-azadibenzo[a,e]azulene-9-carboxamide]	< 100
COC(=O)C(N)Cc1ccc(C(C)(C)NC(=O)c2ccc3c(C4CCCCC4)c4n(c3c2)CCOc2cc(OC)ccc2-4)cc1 (stereo not drawn) [Example 2-442, methyl 2-amino-3-(4-{1-[(12-cyclohexyl-3-methoxy-6,7-dihydro-5-oxa-7a-azadibenzo[a,e]azulene-9-carbonyl)amino]-1-methylethyl}phenyl)propionate monohydrochloride]	< 100
COc1ccc2c(c1)OCCn1c-2c(C2CCCCC2)c2ccc(C(=O)NC(C)(C)c3ccc(CC(NC(C)=O)C(=O)O)cc3)cc21 (stereo not drawn) [Example 2-443, 2-acetylamino-3-(4-{1-[(12-cyclohexyl-3-methoxy-6,7-dihydro-5-oxa-7a-azadibenzo[a,e]azulene-9-carbonyl)amino]-1-methylethyl}phenyl)propionic acid]	< 100
